pEC50: −log10 of the molar value. ≈ marks a conversion by molar mass, not a printed value.
How the values were obtained:
HIV-1 (IIIB) = assay: microbe, parasite or virus in culture; type: cell-based; conditions: Human immunodeficiency virus 1, MT4, 120 h; HIV-1 (IIIB) replication in MT-4 cells, 5 days, Cell Titer Glo; read-out: MT4 EC50
in vitro = conditions: human; for CC50 at 5 days: uninfected MT-4 cells
physchem = conditions: 23 °C, thermodynamic from solid; for solubility thermodynamic at 24 h: FaSSIF

SMILES	pEC50 (HIV-1 (IIIB))	CC50 at 5 days (in vitro) [µM]	solubility thermodynamic at 24 h (physchem) [µg/mL]	CC50 (in vitro) [µM]	solubility thermodynamic (physchem; fassif) [µg/mL]
CC1=NO[C@@]2(CC[C@H](C)N3C[C@H]2n2cc(C(=O)NCc4ccc(F)cc4F)c(=O)c(OCOC(=O)OCCOP(=O)(O)O)c2C3=O)C1 [Compound 4, (((3′S,5S,7′R)-10′-((2,4-difluorobenzyl)carbamoyl)-3,3′-dimethyl-1′,11′-dioxo-1′,4′,5′,11′-tetrahydro-3′H,4H,7′H-spiro[isoxazole-5,6′-[2,7]methanopyrido[1,2-a][1,4]diazonin]-12′-yl)oxy)methyl (2-(phosphonooxy)ethyl) carbonate]	9.02	11.6	4300 (≈ 6.28 mM)	–	–
COC1=NO[C@@]2(CC[C@H](C)N3C[C@H]2n2cc(C(=O)NCc4ccc(F)cc4F)c(=O)c(OCOC(=O)OCCN(CC(=O)O)C(=O)OCOP(=O)(O)O)c2C3=O)C1 [Compound 8, N-(2-((((((3′S,5S,7′R)-10′-((2,4-difluorobenzyl)carbamoyl)-3-methoxy-3′-methyl-1′,11′-dioxo-1′,4′,5′,11′-tetrahydro-3′H,4H,7′H-spiro[isoxazole-5,6′-[2,7]methanopyrido[1,2-a][1,4]diazonin]-12′-yl)oxy)methoxy)carbonyl)oxy)ethyl)-N-(((phosphonooxy)methoxy)carbonyl)glycine]	8.69	17.8	3020 (≈ 3.63 mM)	–	–
CC1=NO[C@@]2(CC[C@H](C)N3C[C@H]2n2cc(C(=O)NCc4ccc(F)cc4F)c(=O)c(OCOC(=O)OCC(C)(C)COP(=O)(O)O)c2C3=O)C1 [Compound 12, (((3′S,5S,7′R)-10′-((2,4-difluorobenzyl)carbamoyl)-3,3′-dimethyl-1′,11′-dioxo-1′,4′,5′,11′-tetrahydro-3′H,4H,7′H-spiro[isoxazole-5,6′-[2,7]methanopyrido[1,2-a][1,4]diazonin]-12′-yl)oxy)methyl (2,2-dimethyl-3-(phosphonooxy)propyl) carbonate]	8.70	14	5280 (≈ 7.27 mM)	–	–
CC1=NO[C@@]2(CC[C@H](C)N3C[C@H]2n2cc(C(=O)NCc4ccc(F)cc4F)c(=O)c(OCOC(=O)OCC[N+](C)(C)C)c2C3=O)C1 [Compound 15, 2-((((((3′S,5S,7′R)-10′-((2,4-difluorobenzyl)carbamoyl)-3,3′-dimethyl-1′,11′-dioxo-1′,4′,5′,11′-tetrahydro-3′H,4H,7′H-spiro[isoxazole-5,6′-[2,7]methanopyrido[1,2-a][1,4]diazonin]-12′-yl)oxy)methoxy)carbonyl)oxy)-N,N,Ntrimethylethan-1-aminium trifluoroacetic acid]	–	17.3	4370	–	–
CC1=NO[C@@]2(CC[C@H](C)N3C[C@H]2n2cc(C(=O)NCc4ccc(F)cc4F)c(=O)c(OC(=O)OCC[N+](C)(C)C)c2C3=O)C1 [Compound 16, 2-(((((3′S,5S,7′R)-10′-((2,4-difluorobenzyl)carbamoyl)-3,3′-dimethyl-1′,11′-dioxo-1′,4′,5′,11′-tetrahydro-3′H,4H,7′H-spiro[isoxazole-5,6′-[2,7]methanopyrido[1,2-a][1,4]diazonin]-12′-yl)oxy)carbonyl)oxy)-N,N,N-trimethylethan-1-aminium trifluoroacetic acid]	–	14.1	2230	–	–
CC1=NO[C@@]2(CC[C@H](C)N3C[C@H]2n2cc(C(=O)NCc4ccc(F)cc4F)c(=O)c(OCOC(=O)O[C@H](C)COP(=O)(O)O)c2C3=O)C1 [Compound 18, (((3′S,5S,7′R)-10′-((2,4-difluorobenzyl)carbamoyl)-3,3′-dimethyl-1′,11′-dioxo-1′,4′,5′,11′-tetrahydro-3′H,4H,7′H-spiro[isoxazole-5,6′-[2,7]methanopyrido[1,2-a][1,4]diazonin]-12′-yl)oxy)methyl ((R)-1-(phosphonooxy)propan-2-yl) carbonate]	8.64	12.1	–	–	–
CC1=NO[C@@]2(CC[C@H](C)N3C[C@H]2n2cc(C(=O)NCc4ccc(F)cc4F)c(=O)c(OCOC(=O)CCCCOP(=O)(O)O)c2C3=O)C1 [Compound 20, (((3′S,5S,7′R)-10′-((2,4-difluorobenzyl)carbamoyl)-3,3′-dimethyl-1′,11′-dioxo-1′,4′,5′,11′-tetrahydro-3′H,4H,7′H-spiro[isoxazole-5,6′-[2,7]methanopyrido[1,2-a][1,4]diazonin]-12′-yl)oxy)methyl 5-(phosphonooxy)pentanoate]	8.63	20.4	–	–	–
CC1=NO[C@@]2(CC[C@H](C)N3C[C@H]2n2cc(C(=O)NCc4ccc(F)cc4F)c(=O)c(OCOC(=O)O[C@@H](C)C[C@H](C)OP(=O)(O)O)c2C3=O)C1 [Compound 30, (((3′S,5S,7′R)-10′-((2,4-difluorobenzyl)carbamoyl)-3,3′-dimethyl-1′,11′-dioxo-1′,4′,5′,11′-tetrahydro-3′H,4H,7′H-spiro[isoxazole-5,6′-[2,7]methanopyrido[1,2-a][1,4]diazonin]-12′-yl)oxy)methyl ((2S,4S)-4-(phosphonooxy)pentan-2-yl) carbonate]	8.57	10.3	–	–	–
CC1=NO[C@@]2(CC[C@H](C)N3C[C@H]2n2cc(C(=O)NCc4ccc(F)cc4F)c(=O)c(OCOC(=O)OCCCCOP(=O)(O)O)c2C3=O)C1 [Compound 34, (((3′S,5S,7′R)-10′-((2,4-difluorobenzyl)carbamoyl)-3,3′-dimethyl-1′,11′-dioxo-1′,4′,5′,11′-tetrahydro-3′H,4H,7′H-spiro[isoxazole-5,6′-[2,7]methanopyrido[1,2-a][1,4]diazonin]-12′-yl)oxy)methyl (4-(phosphonooxy)butyl) carbonate]	–	–	–	50	4890 (≈ 6.86 mM)
CC1=NO[C@@]2(CC[C@H](C)N3C[C@H]2n2cc(C(=O)NCc4ccc(F)cc4F)c(=O)c(OCOC(=O)C4(CCN(CC(=O)O)C(=O)OCOP(=O)(O)O)CC4)c2C3=O)C1 [Compound 44, N-(2-(1-(((((3′S,5S,7′R)-10′-((2,4-difluorobenzyl)carbamoyl)-3,3′-dimethyl-1′,11′-dioxo-1′,4′,5′,11′-tetrahydro-3′H,4H,7′H-spiro[isoxazole-5,6′-[2,7]methanopyrido[1,2-a][1,4]diazonin]-12′-yl)oxy)methoxy)carbonyl)cyclopropyl)ethyl)-N-(((phosphonooxy)methoxy)carbonyl)glycine]	8.85	11.1	–	–	–
CC1=NO[C@@]2(CC[C@H](C)N3C[C@H]2n2cc(C(=O)NCc4ccc(F)cc4F)c(=O)c(OCOC(=O)N(CCOP(=O)(O)O)CC(=O)O)c2C3=O)C1 [Compound 46, N-(((((3′S,5S,7′R)-10′-((2,4-difluorobenzyl)carbamoyl)-3,3′-dimethyl-1′,11′-dioxo-1′,4′,5′,11′-tetrahydro-3′H,4H,7′H-spiro[isoxazole-5,6′-[2,7]methanopyrido[1,2-a][1,4]diazonin]-12′-yl)oxy)methoxy)carbonyl)-N-(2-(phosphonooxy)ethyl)glycine]	–	50	4980 (≈ 6.72 mM)	–	–
COC1=NO[C@@]2(CC[C@H](C)N3C[C@H]2n2cc(C(=O)NCc4ccc(F)cc4F)c(=O)c(OCOC(=O)OC[C@@H](C)OP(=O)(O)O)c2C3=O)C1 [Compound 53, (((3′S,5S,7′R)-10′-((2,4-difluorobenzyl)carbamoyl)-3-methoxy-3′-methyl-1′,11′-dioxo-1′,4′,5′,11′-tetrahydro-3′H,4H,7′H-spiro[isoxazole-5,6′-[2,7]methanopyrido[1,2-a][1,4]diazonin]-12′-yl)oxy)methyl ((R)-2-(phosphonooxy)propyl) carbonate]	8.71	15.2	–	–	–
CC1=NO[C@@]2(CC[C@H](C)N3C[C@H]2n2cc(C(=O)NCc4ccc(F)cc4F)c(=O)c(OCOC(=O)OC(C)(C)C(C)OP(=O)(O)O)c2C3=O)C1 (stereo partly drawn) [Compound 55, (((3′S,5S,7′R)-10′-((2,4-difluorobenzyl)carbamoyl)-3,3′-dimethyl-1′,11′-dioxo-1′,4′,5′,11′-tetrahydro-3′H,4H,7′H-spiro[isoxazole-5,6′-[2,7]methanopyrido[1,2-a][1,4]diazonin]-12′-yl)oxy)methyl (2-methyl-3-(phosphonooxy)butan-2-yl) carbonate]	–	–	4600 (≈ 6.33 mM)	–	–
CC1=NO[C@@]2(CC[C@H](C)N3C[C@H]2n2cc(C(=O)NCc4ccc(F)cc4F)c(=O)c(OCOC(=O)OC(C)C(C)(C)OP(=O)(O)O)c2C3=O)C1 (stereo partly drawn) [Compound 56, (((3′S,5S,7′R)-10′-((2,4-difluorobenzyl)carbamoyl)-3,3′-dimethyl-1′,11′-dioxo-1′,4′,5′,11′-tetrahydro-3′H,4H,7′H-spiro[isoxazole-5,6′-[2,7]methanopyrido[1,2-a][1,4]diazonin]-12′-yl)oxy)methyl (3-methyl-3-(phosphonooxy)butan-2-yl) carbonate]	–	–	4240 (≈ 5.84 mM)	–	–
CC1=NO[C@@]2(CC[C@H](C)N3C[C@H]2n2cc(C(=O)NCc4ccc(F)cc4F)c(=O)c(OCOC(=O)OC[C@@H](C)COP(=O)(O)O)c2C3=O)C1 [Compound 70, (((3′S,5S,7′R)-10′-((2,4-difluorobenzyl)carbamoyl)-3,3′-dimethyl-1′,11′-dioxo-1′,4′,5′,11′-tetrahydro-3′H,4H,7′H-spiro[isoxazole-5,6′-[2,7]methanopyrido[1,2-a][1,4]diazonin]-12′-yl)oxy)methyl ((R)-2-methyl-3-(phosphonooxy)propyl) carbonate]	8.54	15.3	–	–	–
COC1=NO[C@@]2(CC[C@H](C)N3C[C@H]2n2cc(C(=O)NCc4ccc(F)cc4F)c(=O)c(OCOC(=O)OC[C@@H](C)COP(=O)(O)O)c2C3=O)C1 [Compound 71, (((3′S,5S,7′R)-10′-((2,4-difluorobenzyl)carbamoyl)-3-methoxy-3′-methyl-1′,11′-dioxo-1′,4′,5′,11′-tetrahydro-3′H,4H,7′H-spiro[isoxazole-5,6′-[2,7]methanopyrido[1,2-a][1,4]diazonin]-12′-yl)oxy)methyl ((R)-2-methyl-3-(phosphonooxy)propyl) carbonate]	8.30	21.3	–	–	–

Reference: patent US20250120989A1, “BRIDGED TRICYCLIC CARBAMOYLPYRIDONE COMPOUNDS AND USES THEREOF” (priority 2023, published 2025)
